Measured values published in patent US6737383B1, “Herbicidal oxadiazolidines” (priority 1999, dated 2004).

Tests used:
sugar beet = test: Test B pre/postemergence sugar beet; format: in vivo, Beta vulgaris
Summary of the method: (§1)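 Response is a visual 0-to-10 score relative to untreated plants, where 0 means no effect and 10 means complete control, taken twelve to sixteen days after application. Treatments went onto soil at planting and onto foliage of 1- to 4-leaf plants, using a surfactant-containing non-phytotoxic solvent.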

giant foxtail = test: Test B pre/postemergence giant foxtail; format: in vivo, Setaria faberii
Summary of the method: as §1

soybean = test: Test B pre/postemergence soybean; format: in vivo, Glycine max
Summary of the method: as §1

wild oat = test: Test B pre/postemergence wild oat; format: in vivo, Avena fatua
Summary of the method: as §1

duck salad = test: Test B flood test duck salad; format: in vivo, Heteranthera limosa
Summary of the method: (§2)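 Plants were grown to the 2-leaf stage before treatment with test chemical, then held in a greenhouse for twelve to sixteen days. Injury was visually rated against untreated controls on a 0–10 scale, where 0 is no effect and 10 is complete control.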

purple nutsedge = test: Test B pre/postemergence purple nutsedge; format: in vivo, Cyperus rotundus
Summary of the method: as §1

bamyardgrass = test: Test B flood test barnyardgrass; format: in vivo, Echinochloa crus-galli
Summary of the method: as §2

rape = test: Test B pre/postemergence rape; format: in vivo, Brassica napus
Summary of the method: as §1

rice = test: Test B flood test rice; format: in vivo, Oryza sativa
Summary of the method: as §2

velvetleaf = test: Test B pre/postemergence velvetleaf; format: in vivo, Abutilon theophrasti
Summary of the method: as §1

pigweed = test: Test B pre/postemergence pigweed; format: in vivo, Amaranthus retroflexus
Summary of the method: as §1

wheat = test: Test B pre/postemergence wheat; format: in vivo, Triticum aestivum
Summary of the method: as §1

bedstraw = test: Test B pre/postemergence bedstraw; format: in vivo, Galium aparine
Summary of the method: as §1

smallflower flatsedge = test: Test B flood test smallflower flatsedge; format: in vivo, Cyperus difformis
Summary of the method: as §2

morningglory = test: Test B pre/postemergence morningglory; format: in vivo, Ipomoea hederacea
Summary of the method: as §1

blackgrass = test: Test B pre/postemergence blackgrass; format: in vivo, Alopecurus myosuroides
Summary of the method: as §1

[1] = Preemergence, Rate 62 g/ha, scale of 0 to 10 where 0 is no effect and 10 is complete control
[2] = Preemergence, Rate 250 g/ha, scale of 0 to 10 where 0 is no effect and 10 is complete control
[3] = Preemergence, Rate 500 g/ha, scale of 0 to 10 where 0 is no effect and 10 is complete control
[4] = Rate 62 g/ha, Postemergence, scale of 0 to 10 where 0 is no effect and 10 is complete control
[5] = Rate 125 g/ha, Postemergence, scale 0 to 10
[6] = Rate 125 g/ha, Preemergence, scale of 0 to 10 where 0 is no effect and 10 is complete control
[7] = Rate 500 g/ha, Postemergence, scale 0 to 10, 0 no effect, 10 complete control
[8] = Rate 62 g/ha, headed Pre-emergence (flood test species), scale 0 to 10 (0 no effect, 10 complete control)
[9] = Rate 125 g/ha, Pre-emergence, flood test species, scale 0 to 10 where 0 is no effect and 10 is complete control
[10] = Rate 250 g/ha, Pre-emergence, flood-test species, scale 0 to 10, 0 is no effect, 10 is complete control
[11] = Rate 500 g/ha, Pre-emergence, flood test species, scale 0 to 10 (0 no effect, 10 complete control)

CON=C(Cn1c(=O)on(C(=O)N(c2ccc(F)cc2)C(C)C)c1=O)C(F)(F)F [Compound 227]
Sugarbeets plant response rating (sugar beet; [1]): 2
Sugarbeets plant response rating (sugar beet; [2]): 6
Plant response rating, Sugarbeets (sugar beet; [3]): 8
Sugarbeets plant response rating (sugar beet; [4]): 0
Sugarbeets plant response rating (sugar beet; [5]): 0
Sugarbeets plant response rating (sugar beet; [6]): 3
Plant response rating (0 to 10; 0 is no effect, 10 is complete control), Sugarbeets (sugar beet; Rate 250 g/ha, Postemergence): 3
Sugarbeets plant response rating (sugar beet; [7]): 5
Giant foxtail plant response rating (giant foxtail; [1]): 9
Giant foxtail plant response rating (giant foxtail; [2]): 10
Plant response rating, Giant foxtail (giant foxtail; [3]): 10
Giant foxtail plant response rating (giant foxtail; [4]): 0
Giant foxtail plant response rating (giant foxtail; [5]): 0
Giant foxtail plant response rating (giant foxtail; [6]): 10
Plant response rating (0 to 10; 0 is no effect, 10 is complete control), Giant foxtail (giant foxtail; Rate 250 g/ha, Postemergence): 0
Giant foxtail plant response rating (giant foxtail; [7]): 0
Soybean plant response rating (soybean; [1]): 0
Soybean plant response rating (soybean; [2]): 0
Plant response rating, Soybean (soybean; [3]): 2
Soybean plant response rating (soybean; [4]): 1
Soybean plant response rating (soybean; [5]): 3
Soybean plant response rating (soybean; [6]): 0
Plant response rating (0 to 10; 0 is no effect, 10 is complete control), Soybean (soybean; Rate 250 g/ha, Postemergence): 4
Soybean plant response rating (soybean; [7]): 5
Wild oats plant response rating (wild oat; [1]): 0
Wild oats plant response rating (wild oat; [2]): 3
Plant response rating, Wild oats (wild oat; [3]): 3
Wild oats plant response rating (wild oat; [4]): 0
Wild oats plant response rating (wild oat; [5]): 0
Wild oats plant response rating (wild oat; [6]): 0
Plant response rating (0 to 10; 0 is no effect, 10 is complete control), Wild oats (wild oat; Rate 250 g/ha, Postemergence): 0
Wild oats plant response rating (wild oat; [7]): 2
Ducksalad plant response rating (duck salad; [8]): 0
Ducksalad plant response rating (duck salad; [9]): 0
Ducksalad plant response rating (duck salad; [10]): 0
Ducksalad plant response rating (duck salad; [11]): 0
Nutsedge plant response rating (purple nutsedge; [1]): 0
Nutsedge plant response rating (purple nutsedge; [2]): 0
Nutsedge plant response rating (purple nutsedge; [4]): 0
Nutsedge plant response rating (purple nutsedge; [5]): 0
Nutsedge plant response rating (purple nutsedge; [6]): 0
Plant response rating (0 to 10; 0 is no effect, 10 is complete control), Nutsedge (purple nutsedge; Rate 250 g/ha, Postemergence): 0
Nutsedge plant response rating (purple nutsedge; [7]): 0
Barnyardgrass plant response rating (bamyardgrass; [8]): 0
Barnyardgrass plant response rating (bamyardgrass; [9]): 0
Barnyardgrass plant response rating (bamyardgrass; [10]): 0
Barnyardgrass plant response rating (bamyardgrass; [11]): 0
Rape plant response rating (rape; [1]): 0
Rape plant response rating (rape; [2]): 8
Plant response rating, Rape (rape; [3]): 10
Rape plant response rating (rape; [4]): 0
Rape plant response rating (rape; [5]): 0
Rape plant response rating (rape; [6]): 4
Plant response rating (0 to 10; 0 is no effect, 10 is complete control), Rape (rape; Rate 250 g/ha, Postemergence): 0
Rape plant response rating (rape; [7]): 0
Rice plant response rating (rice; [8]): 0
Rice plant response rating (rice; [9]): 0
Rice plant response rating (rice; [10]): 0
Rice plant response rating (rice; [11]): 0
Velvetleaf plant response rating (velvetleaf; [1]): 0
Velvetleaf plant response rating (velvetleaf; [2]): 0
Plant response rating, Velvetleaf (velvetleaf; [3]): 2
Velvetleaf plant response rating (velvetleaf; [4]): 0
Velvetleaf plant response rating (velvetleaf; [5]): 0
Velvetleaf plant response rating (velvetleaf; [6]): 0
Plant response rating (0 to 10; 0 is no effect, 10 is complete control), Velvetleaf (velvetleaf; Rate 250 g/ha, Postemergence): 0
Velvetleaf plant response rating (velvetleaf; [7]): 3
Redroot pigweed plant response rating (pigweed; [1]): 3
Redroot pigweed plant response rating (pigweed; [2]): 10
Plant response rating, Redroot pigweed (pigweed; [3]): 10
Redroot pigweed plant response rating (pigweed; [4]): 0
Redroot pigweed plant response rating (pigweed; [5]): 2
Redroot pigweed plant response rating (pigweed; [6]): 5
Plant response rating (0 to 10; 0 is no effect, 10 is complete control), Redroot pigweed (pigweed; Rate 250 g/ha, Postemergence): 5
Redroot pigweed plant response rating (pigweed; [7]): 7
Wheat plant response rating (wheat; [1]): 0
Wheat plant response rating (wheat; [2]): 0
Plant response rating, Wheat (wheat; [3]): 0
Wheat plant response rating (wheat; [4]): 0
Wheat plant response rating (wheat; [5]): 0
Wheat plant response rating (wheat; [6]): 0
Plant response rating (0 to 10; 0 is no effect, 10 is complete control), Wheat (wheat; Rate 250 g/ha, Postemergence): 3
Wheat plant response rating (wheat; [7]): 5
Bedstraw plant response rating (bedstraw; [1]): 0
Plant response rating, Bedstraw (bedstraw; [3]): 3
Bedstraw plant response rating (bedstraw; [4]): 7
Bedstraw plant response rating (bedstraw; [5]): 8
Bedstraw plant response rating (bedstraw; [6]): 0
Plant response rating (0 to 10; 0 is no effect, 10 is complete control), Bedstraw (bedstraw; Rate 250 g/ha, Postemergence): 8
Bedstraw plant response rating (bedstraw; [7]): 8
S. Flatsedge plant response rating (smallflower flatsedge; [8]): 0
S. Flatsedge plant response rating (smallflower flatsedge; [9]): 0
S. Flatsedge plant response rating (smallflower flatsedge; [10]): 0
S. Flatsedge plant response rating (smallflower flatsedge; [11]): 0
Morningglory plant response rating (morningglory; [1]): 0
Morningglory plant response rating (morningglory; [2]): 0
Plant response rating, Morningglory (morningglory; [3]): 0
Morningglory plant response rating (morningglory; [4]): 4
Morningglory plant response rating (morningglory; [5]): 4
Morningglory plant response rating (morningglory; [6]): 0
Plant response rating (0 to 10; 0 is no effect, 10 is complete control), Morningglory (morningglory; Rate 250 g/ha, Postemergence): 8
Morningglory plant response rating (morningglory; [7]): 10
Blackgrass plant response rating (blackgrass; [1]): 2
Blackgrass plant response rating (blackgrass; [2]): 10
Plant response rating, Blackgrass (blackgrass; [3]): 10
Blackgrass plant response rating (blackgrass; [4]): 0
Blackgrass plant response rating (blackgrass; [5]): 2
Blackgrass plant response rating (blackgrass; [6]): 5
Plant response rating (0 to 10; 0 is no effect, 10 is complete control), Blackgrass (blackgrass; Rate 250 g/ha, Postemergence): 7
Blackgrass plant response rating (blackgrass; [7]): 7
